Assay: xn = mol fraction of the nth substance listed
Details: for viscosity: 101 kPa; for electrical conductivity: 100 kPa

CCCCCCCCCCCCCCCC[N+](C)(C)C.[Br-] + NCC(=O)O + O
viscosity [mPa·s]
Details | 298.15 K | 303.15 K | 308.15 K | 313.15 K
x2 = 0.003591, x1 = 3.46e-06 | 0.906 | 0.819 | 0.74 | 0.67
x2 = 0.003591, x1 = 8.2e-06 | 0.909 | 0.82 | 0.742 | 0.671
x2 = 0.003591, x1 = 1.13e-05 | 0.912 | 0.82 | 0.745 | 0.672
x2 = 0.003591, x1 = 1.44e-05 | 0.914 | 0.825 | 0.749 | 0.674
x2 = 0.003591, x1 = 1.731e-05 | 0.922 | 0.827 | 0.752 | 0.675
x2 = 0.003591, x1 = 2.096e-05 | 0.93 | 0.831 | 0.755 | 0.678
x2 = 0.003591, x1 = 2.333e-05 | 0.932 | 0.843 | 0.757 | 0.68
x2 = 0.003591, x1 = 2.752e-05 | 0.936 | 0.847 | 0.759 | 0.683
x2 = 0.003591, x1 = 3.171e-05 | 0.94 | 0.853 | 0.761 | 0.689
x2 = 0.003591, x1 = 3.572e-05 | 0.94 | 0.855 | 0.764 | 0.692
x2 = 0.005377, x1 = 3.48e-06 | 0.879 | 0.801 | 0.725 | 0.644
x2 = 0.005377, x1 = 8.25e-06 | 0.881 | 0.804 | 0.726 | 0.644
x2 = 0.005377, x1 = 1.136e-05 | 0.884 | 0.805 | 0.726 | 0.645
x2 = 0.005377, x1 = 1.448e-05 | 0.886 | 0.807 | 0.727 | 0.647
x2 = 0.005377, x1 = 1.741e-05 | 0.89 | 0.808 | 0.728 | 0.648
x2 = 0.005377, x1 = 2.108e-05 | 0.893 | 0.811 | 0.731 | 0.649
x2 = 0.005377, x1 = 2.346e-05 | 0.896 | 0.813 | 0.733 | 0.65
x2 = 0.005377, x1 = 2.767e-05 | 0.9 | 0.816 | 0.736 | 0.651
x2 = 0.005377, x1 = 3.189e-05 | 0.906 | 0.823 | 0.738 | 0.653
x2 = 0.005377, x1 = 3.592e-05 | 0.912 | 0.828 | 0.741 | 0.655
x2 = 0.007156, x1 = 3.5e-06 | 0.914 | 0.848 | – | –
x2 = 0.007156, x1 = 8.29e-06 | 0.918 | 0.852 | – | –
x2 = 0.007156, x1 = 1.143e-05 | 0.92 | 0.855 | – | –
x2 = 0.007156, x1 = 1.456e-05 | 0.922 | 0.859 | – | –
x2 = 0.007156, x1 = 1.751e-05 | 0.925 | 0.864 | – | –
x2 = 0.007156, x1 = 2.119e-05 | 0.926 | 0.868 | – | –
x2 = 0.007156, x1 = 2.359e-05 | 0.929 | 0.872 | – | –
x2 = 0.007156, x1 = 2.783e-05 | 0.933 | 0.876 | – | –
x2 = 0.007156, x1 = 3.206e-05 | 0.937 | 0.882 | – | –
x2 = 0.007156, x1 = 3.612e-05 | 0.944 | 0.886 | – | –

CCCCCCCC[n+]1ccccc1.[Br-] + NCC(=O)O + O
Details | electrical conductivity [S/m]
288.15 K, x2 = 0.0008947, x1 = 0.006107 | 1.24
288.15 K, x2 = 0.000895, x1 = 0.005825 | 1.21
288.15 K, x2 = 0.0008952, x1 = 0.005524 | 1.18
288.15 K, x2 = 0.0008955, x1 = 0.005206 | 1.15
288.15 K, x2 = 0.0008958, x1 = 0.004856 | 1.11
288.15 K, x2 = 0.0008962, x1 = 0.004472 | 1.07
288.15 K, x2 = 0.0008965, x1 = 0.004053 | 1
288.15 K, x2 = 0.0008969, x1 = 0.003596 | 0.923
288.15 K, x2 = 0.0008974, x1 = 0.003095 | 0.831
288.15 K, x2 = 0.0008979, x1 = 0.00254 | 0.716
288.15 K, x2 = 0.0008984, x1 = 0.00193 | 0.579
288.15 K, x2 = 0.0008988, x1 = 0.001523 | 0.48
288.15 K, x2 = 0.0008992, x1 = 0.00113 | 0.377
288.15 K, x2 = 0.0008996, x1 = 0.000679 | 0.257
288.15 K, x2 = 0.001793, x1 = 0.003383 | 0.886
288.15 K, x2 = 0.001794, x1 = 0.002789 | 0.766
288.15 K, x2 = 0.001795, x1 = 0.002127 | 0.621
288.15 K, x2 = 0.001796, x1 = 0.00171 | 0.522
288.15 K, x2 = 0.001797, x1 = 0.0007678 | 0.279
288.15 K, x2 = 0.001797, x1 = 0.001253 | 0.407
293.15 K, x2 = 0.0008947, x1 = 0.006101 | 1.41
293.15 K, x2 = 0.000895, x1 = 0.005819 | 1.38
293.15 K, x2 = 0.0008952, x1 = 0.005519 | 1.34
293.15 K, x2 = 0.0008955, x1 = 0.005201 | 1.3
293.15 K, x2 = 0.0008958, x1 = 0.00485 | 1.26
293.15 K, x2 = 0.0008962, x1 = 0.004469 | 1.21
293.15 K, x2 = 0.0008965, x1 = 0.00405 | 1.13
293.15 K, x2 = 0.0008969, x1 = 0.003594 | 1.05
293.15 K, x2 = 0.0008974, x1 = 0.003091 | 0.935
293.15 K, x2 = 0.0008979, x1 = 0.002538 | 0.809
293.15 K, x2 = 0.0008985, x1 = 0.001923 | 0.652
293.15 K, x2 = 0.0008988, x1 = 0.001521 | 0.542
293.15 K, x2 = 0.0008992, x1 = 0.00113 | 0.423
293.15 K, x2 = 0.0008996, x1 = 0.000679 | 0.285
293.15 K, x2 = 0.001793, x1 = 0.003379 | 1
293.15 K, x2 = 0.001794, x1 = 0.002785 | 0.864
293.15 K, x2 = 0.001795, x1 = 0.002125 | 0.701
293.15 K, x2 = 0.001796, x1 = 0.001708 | 0.589
293.15 K, x2 = 0.001797, x1 = 0.0007678 | 0.312
293.15 K, x2 = 0.001797, x1 = 0.001251 | 0.458
298.15 K, x2 = 0.0008947, x1 = 0.006092 | 1.59
298.15 K, x2 = 0.000895, x1 = 0.005812 | 1.55
298.15 K, x2 = 0.0008952, x1 = 0.005512 | 1.51
298.15 K, x2 = 0.0008955, x1 = 0.005195 | 1.47
298.15 K, x2 = 0.0008958, x1 = 0.004845 | 1.42
298.15 K, x2 = 0.0008962, x1 = 0.004462 | 1.35
298.15 K, x2 = 0.0008965, x1 = 0.004044 | 1.27
298.15 K, x2 = 0.000897, x1 = 0.003589 | 1.18
298.15 K, x2 = 0.0008974, x1 = 0.003088 | 1.05
298.15 K, x2 = 0.0008979, x1 = 0.002534 | 0.906
298.15 K, x2 = 0.0008985, x1 = 0.001921 | 0.725
298.15 K, x2 = 0.0008988, x1 = 0.001519 | 0.603
298.15 K, x2 = 0.0008992, x1 = 0.001128 | 0.473
298.15 K, x2 = 0.0008996, x1 = 0.0006772 | 0.315
298.15 K, x2 = 0.001793, x1 = 0.003376 | 1.11
298.15 K, x2 = 0.001794, x1 = 0.002781 | 0.967
298.15 K, x2 = 0.001795, x1 = 0.002123 | 0.782
298.15 K, x2 = 0.001796, x1 = 0.001706 | 0.657
298.15 K, x2 = 0.001797, x1 = 0.000766 | 0.347
298.15 K, x2 = 0.001797, x1 = 0.001249 | 0.511
303.15 K, x2 = 0.0008947, x1 = 0.006085 | 1.78
303.15 K, x2 = 0.000895, x1 = 0.005803 | 1.74
303.15 K, x2 = 0.0008952, x1 = 0.005503 | 1.69
303.15 K, x2 = 0.0008955, x1 = 0.005188 | 1.64
303.15 K, x2 = 0.0008958, x1 = 0.004838 | 1.58
303.15 K, x2 = 0.0008962, x1 = 0.004456 | 1.51
303.15 K, x2 = 0.0008965, x1 = 0.004039 | 1.42
303.15 K, x2 = 0.000897, x1 = 0.003583 | 1.3
303.15 K, x2 = 0.0008974, x1 = 0.003082 | 1.17
303.15 K, x2 = 0.0008979, x1 = 0.002531 | 1
303.15 K, x2 = 0.0008985, x1 = 0.001917 | 0.791
303.15 K, x2 = 0.0008988, x1 = 0.001517 | 0.654
303.15 K, x2 = 0.0008992, x1 = 0.001126 | 0.519
303.15 K, x2 = 0.0008996, x1 = 0.0006772 | 0.351
303.15 K, x2 = 0.001793, x1 = 0.00337 | 1.24
303.15 K, x2 = 0.001794, x1 = 0.002778 | 1.08
303.15 K, x2 = 0.001795, x1 = 0.002119 | 0.859
303.15 K, x2 = 0.001796, x1 = 0.001704 | 0.719
303.15 K, x2 = 0.001797, x1 = 0.000766 | 0.383
303.15 K, x2 = 0.001797, x1 = 0.001247 | 0.566
308.15 K, x2 = 0.0008947, x1 = 0.006075 | 2.03
308.15 K, x2 = 0.000895, x1 = 0.005792 | 1.97
308.15 K, x2 = 0.0008952, x1 = 0.005494 | 1.9
308.15 K, x2 = 0.0008955, x1 = 0.005178 | 1.84
308.15 K, x2 = 0.0008958, x1 = 0.004829 | 1.75
308.15 K, x2 = 0.0008962, x1 = 0.004449 | 1.66
308.15 K, x2 = 0.0008966, x1 = 0.004032 | 1.57
308.15 K, x2 = 0.000897, x1 = 0.003578 | 1.44
308.15 K, x2 = 0.0008974, x1 = 0.003077 | 1.26
308.15 K, x2 = 0.0008979, x1 = 0.002527 | 1.07
308.15 K, x2 = 0.0008985, x1 = 0.001914 | 0.861
308.15 K, x2 = 0.0008988, x1 = 0.001516 | 0.717
308.15 K, x2 = 0.0008992, x1 = 0.001125 | 0.574
308.15 K, x2 = 0.0008996, x1 = 0.0006754 | 0.425
308.15 K, x2 = 0.001793, x1 = 0.003365 | 1.36
308.15 K, x2 = 0.001794, x1 = 0.002774 | 1.17
308.15 K, x2 = 0.001795, x1 = 0.002116 | 0.934
308.15 K, x2 = 0.001796, x1 = 0.001701 | 0.79
308.15 K, x2 = 0.001797, x1 = 0.0007642 | 0.453
308.15 K, x2 = 0.001797, x1 = 0.001245 | 0.624
